From the NIST ThermoML archive (doi:10.1021/acs.jced.8b00011)
“And” between values parts separate entries of the source, which are not always exact repeats. Identical values can stand only once. ± gives the expanded uncertainty stated by the source.

Conditions: Liquid; for mass density: Vibrating tube method; for electrical conductivity: electrochemical impedance spectroscopy

CCCCC[P+](CC)(CC)CC.O=S(=O)([N-]S(=O)(=O)C(F)(F)F)C(F)(F)F
mass density (343.15 K, 45000 kPa): 1298.89 ± 1.5 kg/m3 | mass density (343.15 K, 50000 kPa): 1302.23 ± 1.6 kg/m3 | electrical conductivity (348.14 K, 10700 kPa, Frequency=0 MHz): 0.8 ± 0.016 S/m | electrical conductivity (348.14 K, 225100 kPa, Frequency=0 MHz): 0.167 ± 0.0033 S/m | viscosity (348.15 K, 100 kPa, Falling or rolling sphere viscometry): 13.81 ± 0.32 mPa·s [middle of 7 runs] | electrical conductivity (348.15 K, 101.33 kPa): 0.885 S/m and 0.887 S/m | viscosity (348.15 K, 600 kPa, Falling or rolling sphere viscometry): 13.91 ± 0.33 mPa·s | electrical conductivity (348.15 K, 1100 kPa, Frequency=0 MHz): 0.871 ± 0.017 S/m | electrical conductivity (348.15 K, 1700 kPa, Frequency=0 MHz): 0.865 ± 0.017 S/m | electrical conductivity (348.15 K, 3100 kPa, Frequency=0 MHz): 0.855 ± 0.017 S/m | electrical conductivity (348.15 K, 5100 kPa, Frequency=0 MHz): 0.84 ± 0.017 S/m | viscosity (348.15 K, 10500 kPa, Falling or rolling sphere viscometry): 15.46 ± 0.37 mPa·s | electrical conductivity (348.15 K, 15700 kPa, Frequency=0 MHz): 0.766 ± 0.015 S/m | viscosity (348.15 K, 20600 kPa, Falling or rolling sphere viscometry): 17.36 ± 0.41 mPa·s | electrical conductivity (348.15 K, 20800 kPa, Frequency=0 MHz): 0.734 ± 0.015 S/m | electrical conductivity (348.15 K, 25700 kPa, Frequency=0 MHz): 0.704 ± 0.014 S/m | viscosity (348.15 K, 30600 kPa, Falling or rolling sphere viscometry): 18.78 ± 0.45 mPa·s | electrical conductivity (348.15 K, 30800 kPa, Frequency=0 MHz): 0.675 ± 0.013 S/m | electrical conductivity (348.15 K, 40200 kPa, Frequency=0 MHz): 0.625 ± 0.013 S/m | viscosity (348.15 K, 40700 kPa, Falling or rolling sphere viscometry): 20.72 ± 0.49 mPa·s | viscosity (348.15 K, 50700 kPa, Falling or rolling sphere viscometry): 22.73 ± 1.1 mPa·s | viscosity (348.15 K, 51400 kPa, Falling or rolling sphere viscometry): 22.92 ± 1.1 mPa·s | viscosity (348.15 K, 60700 kPa, Falling or rolling sphere viscometry): 25.33 ± 0.6 mPa·s | viscosity (348.15 K, 70400 kPa, Falling or rolling sphere viscometry): 27.64 ± 0.65 mPa·s | electrical conductivity (348.15 K, 76000 kPa, Frequency=0 MHz): 0.473 ± 0.0095 S/m | viscosity (348.15 K, 80600 kPa, Falling or rolling sphere viscometry): 29.75 ± 0.7 mPa·s | viscosity (348.15 K, 89800 kPa, Falling or rolling sphere viscometry): 32.25 ± 0.76 mPa·s | viscosity (348.15 K, 99100 kPa, Falling or rolling sphere viscometry): 34.86 ± 1.5 mPa·s | viscosity (348.15 K, 100500 kPa, Falling or rolling sphere viscometry): 35.04 ± 1.5 mPa·s | viscosity (348.15 K, 125700 kPa, Falling or rolling sphere viscometry): 42.64 ± 2.2 mPa·s | viscosity (348.15 K, 126600 kPa, Falling or rolling sphere viscometry): 43.88 ± 2.2 mPa·s | electrical conductivity (348.15 K, 126600 kPa, Frequency=0 MHz): 0.326 ± 0.0065 S/m | viscosity (348.15 K, 150600 kPa, Falling or rolling sphere viscometry): 52.08 ± 1.2 mPa·s | viscosity (348.15 K, 150800 kPa, Falling or rolling sphere viscometry): 52.23 ± 1.2 mPa·s | electrical conductivity (348.15 K, 152400 kPa, Frequency=0 MHz): 0.272 ± 0.0054 S/m | viscosity (348.15 K, 175600 kPa, Falling or rolling sphere viscometry): 63.12 ± 1.5 mPa·s | viscosity (348.15 K, 199600 kPa, Falling or rolling sphere viscometry): 75.5 ± 1.9 mPa·s | electrical conductivity (348.15 K, 200900 kPa, Frequency=0 MHz): 0.196 ± 0.0039 S/m | viscosity (348.15 K, 237000 kPa, Falling or rolling sphere viscometry): 99.1 ± 3.1 mPa·s | viscosity (348.15 K, 242900 kPa, Falling or rolling sphere viscometry): 104.9 ± 3.4 mPa·s | electrical conductivity (348.15 K, 250900 kPa, Frequency=0 MHz): 0.141 ± 0.0028 S/m | electrical conductivity (348.16 K, 100 kPa, Frequency=0 MHz): 0.877 ± 0.018 S/m | electrical conductivity (348.16 K, 101.33 kPa): 0.877 ± 0.018 S/m | electrical conductivity (348.16 K, 50000 kPa, Frequency=0 MHz): 0.577 ± 0.012 S/m | electrical conductivity (348.16 K, 103000 kPa, Frequency=0 MHz): 0.384 ± 0.0077 S/m | electrical conductivity (348.16 K, 176100 kPa, Frequency=0 MHz): 0.231 ± 0.0046 S/m | viscosity (353.15 K, 100 kPa, Concentric cylinders viscometry): 12.27 ± 0.28 mPa·s | viscosity (353.15 K, 100 kPa, Falling or rolling sphere viscometry): 12 ± 0.29 mPa·s and 11.96 ± 0.29 mPa·s | mass density (353.15 K, 100 kPa): 1256.32 ± 1.3 kg/m3 [middle of 5 runs] | electrical conductivity (353.15 K, 101.33 kPa): 0.999 S/m and 1 S/m | mass density (353.15 K, 1000 kPa): 1256.5 ± 1.3 kg/m3 | mass density (353.15 K, 5000 kPa): 1260.01 ± 1.3 kg/m3 | mass density (353.15 K, 10000 kPa): 1264.27 ± 1.3 kg/m3 | mass density (353.15 K, 15000 kPa): 1268.38 ± 1.3 kg/m3 | mass density (353.15 K, 20000 kPa): 1272.39 ± 1.4 kg/m3 | mass density (353.15 K, 25000 kPa): 1276.24 ± 1.4 kg/m3 | mass density (353.15 K, 30000 kPa): 1280.04 ± 1.4 kg/m3 | mass density (353.15 K, 35000 kPa): 1283.68 ± 1.4 kg/m3 | mass density (353.15 K, 40000 kPa): 1287.28 ± 1.5 kg/m3 | mass density (353.15 K, 45000 kPa): 1290.77 ± 1.5 kg/m3 | mass density (353.15 K, 50000 kPa): 1294.22 ± 1.5 kg/m3 | viscosity (363.15 K, 100 kPa, Concentric cylinders viscometry): 9.672 ± 0.22 mPa·s | viscosity (363.15 K, 100 kPa, Falling or rolling sphere viscometry): 9.358 ± 0.22 mPa·s and 9.337 ± 0.22 mPa·s and 9.414 ± 0.22 mPa·s | mass density (363.15 K, 100 kPa): 1248.72 ± 1.7 kg/m3 [middle of 4 runs] | viscosity (363.15 K, 9700 kPa, Falling or rolling sphere viscometry): 10.37 ± 0.25 mPa·s | viscosity (363.15 K, 20100 kPa, Falling or rolling sphere viscometry): 11.57 ± 0.28 mPa·s | viscosity (363.15 K, 20500 kPa, Falling or rolling sphere viscometry): 11.52 ± 0.27 mPa·s | viscosity (363.15 K, 30200 kPa, Falling or rolling sphere viscometry): 12.72 ± 0.3 mPa·s | viscosity (363.15 K, 39200 kPa, Falling or rolling sphere viscometry): 13.83 ± 0.33 mPa·s | viscosity (363.15 K, 49400 kPa, Falling or rolling sphere viscometry): 15.21 ± 0.36 mPa·s | viscosity (363.15 K, 59100 kPa, Falling or rolling sphere viscometry): 16.63 ± 0.39 mPa·s | viscosity (363.15 K, 80200 kPa, Falling or rolling sphere viscometry): 19.84 ± 0.47 mPa·s | viscosity (363.15 K, 102200 kPa, Falling or rolling sphere viscometry): 23.51 ± 0.56 mPa·s | viscosity (363.15 K, 102500 kPa, Falling or rolling sphere viscometry): 23.47 ± 0.56 mPa·s | viscosity (363.15 K, 124000 kPa, Falling or rolling sphere viscometry): 27.54 ± 0.65 mPa·s | viscosity (363.15 K, 125400 kPa, Falling or rolling sphere viscometry): 27.86 ± 0.66 mPa·s | viscosity (363.15 K, 147300 kPa, Falling or rolling sphere viscometry): 32.93 ± 0.78 mPa·s | viscosity (363.15 K, 149300 kPa, Falling or rolling sphere viscometry): 33.43 ± 0.79 mPa·s | viscosity (363.15 K, 172900 kPa, Falling or rolling sphere viscometry): 39.05 ± 0.92 mPa·s | viscosity (363.15 K, 200700 kPa, Falling or rolling sphere viscometry): 47.56 ± 1.1 mPa·s | viscosity (363.15 K, 212300 kPa, Falling or rolling sphere viscometry): 51.41 ± 1.2 mPa·s
